Test results: patent publication US5589373A, “Thermostable alkaline metalloprotease produced by a hyphomonas and preparation thereof” (priority 1995, dated 1996)
Entries after “also recorded” stand apart in the source; their conditions may differ. Read-outs that look alike come from different tables or passages of the source.

What was measured:
[1] = system: H. jannaschiana stationary phase cells; assay: Repression of exoprotease synthesis in stationary phase cells in growth media (azocasein assay); format: cell-based, Hyphomonas jannaschiana VP3; details: for activity / activity at 100000 µM: Hyphomonas jannaschiana, read-out: Enzyme activity (%) in growth media
Procedure: (§1) Samples of the cell culture supernatants, the toluenized cells, and the cell lysates were each tested for protease activity using an azocasein assay, such as described by Long et al., J. Gen. Microbiol. 127:193-199 (1981). One unit of enzyme activity was considered equivalent to an increased absorbance of 0.1 units at a wavelength of 440 nm after a 30 minute incubation at 42° C.
The stationary phase cells were resuspended in a one-tenth volume of MB, then incubated for 30 minutes at 37° C. Exoprotease activity was determined at hourly intervals following introduction of single amino acids at a final concentrations of 0.1% (v/v) o The assay was conducted over a period of 3 hours.
In a similar manner, protease activity was determined following the introduction of 100 mM (NH4)2 SO4 (ammonium sulfate) or 1% casamino acids to the growth medium.

[2] = system: H. jannaschiana extracellular protease; assay: Effect of amino acids, casamino acids or (NH4)2SO4 on cell-free protease suspension (azocasein assay); format: biochemical, Hyphomonas jannaschiana VP3; set-up: Enzyme activity (%) in cell free supernatant: concentration or dose not given beside the values; details: for Enzyme activity (%) in cell free supernatant: cell-free protease suspension, 10 minute incubation, same additions, control = 100
Procedure: as §1
In the alternative, after allowing protease synthesis and export to proceed for 2.5 hours, the cells were removed by centrifugation, and the supernatant was passed through a 0.22 μm filter. The cell-free protease suspension was then treated, as described above, with single amino acids, casamino acids, or (NH4)2 SO4. Then, enzyme activity was determined following a 10 minute incubation period.

[3] = system: H. jannaschiana exoprotease; assay: Recovery of chemically inhibited protease activity by Zn2+ and Ca2+; format: biochemical, Hyphomonas jannaschiana VP3; details: for restoration of activity to EDTA-inactivated enzyme: 100 mM EDTA, ZnCl2 or CaCl2, 25° C.; for effect of additional ions on activity of the native protease: no inhibitor
Procedure: The ability of the divalent cations Zn^2+ and Ca^2+ to restore enzyme activity to inactivated exoprotease was examined by introducing either 5 mM ZnCl2 or 100 mM CaCl2 at a 1:1 molar ratio of ion to inhibitor to the preparations described in Example 4. Following incubation at 25° C. for 15 minutes, protease activity was assayed.

[4] = system: H. jannaschiana exoprotease; assay: Chemical inhibition of protease activity in filtered culture supernatant; format: biochemical, Hyphomonas jannaschiana VP3; details: for exoprotease activity in additional assays, data not shown (in words): concentration not given; for protease activity after exposure to inhibitor (in words): 5 mM o-phenanthroline, 60 mM PMSF, 100 mM EDTA, 80 mM EGTA
Procedure: as §1
The effect of various protease inhibitors on the production of H. jannaschiana exoprotease was tested by measuring protease activity following the incubation of the cells with each inhibitor. Stationary phase cells, grown in MB, were pelleted and resuspended in fresh media at one-tenth of the original culture volume. The cell suspension was incubated at 37° C. for 2.5 hours to permit synthesis and export of exoprotease into the culture supernatant. Then the cells were removed by centrifugation and the supernatant was sterilized by filtration through a 0.22 μm filter.
Protease activity was measured after exposure to each inhibitor at 25° C. for 15 minutes. The inhibitors were added at the following final concentrations: 5 mM o-phenanthroline, 60 mM […] (PMSF), 10 mM and 25 mM p-chloromercuribenzoic acid (pCMB), 100 mM EDTA, 80 mM ethylene glycol bis(beta-amino-ethylether)N,N,N',N'-tetraacetic acid (EGTA).
Each bar represents treatment of the exoprotease with the following: 1=untreated exoprotease; 2=o-phenan-throline; 3=o-phenanthroline and ZnCl; 4=ZnCl; 5=EGTA; 6=EGTA and CaCl; 7=CaCl; 8=EDTA; 9=EDTA and ZnCl; 10=EDTA and CaCl; 11=pCMB (10 mM, final conc.); 12=pCMB (25 mM, final conc.); and 13=PMSF. The enzyme activity was expressed as a percentage of the activity measured in the untreated control.

[5] = system: H. jannaschiana stationary phase cells; assay: Inhibition of protease export by quinacrine in non-proliferating stationary phase cells; format: cell-based; details: Hyphomonas jannaschiana; for activity at 25 µM: 0.025 mM quinacrine, read-out: Enzyme activity relative to untreated control
Procedure: (§2) Thus, protease export was examined in the presence of quinacrine, a signal peptidase inhibitor. Protease export in the presence of quinacrine was examined using two approaches. An actively growing culture of H. jannaschiana was monitored with respect to both optical density at 550 nm and extracellular enzyme activity in the presence of 0.025 mM quinacrine. In order to eliminate the effect of quinacrine on H. jannaschiana growth, cells were initially propagated to stationary phase, and subsequently maintained in the non-proliferating state by 10-fold concentration in fresh media which was supplemented with 0.025 mM quinacrine.

[6] = system: functional extracellular protease; assay: Quinacrine on functional extracellular protease activity; format: biochemical, Hyphomonas jannaschiana
[7] = system: actively growing culture of H. jannaschiana; assay: Quinacrine on an actively growing culture (optical density and extracellular enzyme activity); format: cell-based, Hyphomonas jannaschiana; details: 0.025 mM quinacrine
Procedure: as §2

[8] = Thermal stability of H. jannaschiana exoprotease (azocasein assay); format: physicochemical, Hyphomonas jannaschiana; details: for enzyme activity remaining after incubation at 75° C. for 30 minutes: filtered stationary phase culture supernatant, pH 9
Procedure: Filtered supernatant containing Hyphomonas jannaschiana exoprotease was maintained at 75° C. and 100° C. for various periods of time. Then, the enzyme was allowed to recalibrate to 25° C., and subsequently assayed for protease activity using the azocasein assay.

[9] = Properties of the purified thermostable alkaline metalloprotease (pH and temperature optimum, pH stability, pI); set-up: species or system Hyphomonas jannaschiana
[10] = stationary phase cells in one-tenth volume MB, 37° C., single amino acids 0.1% (v/v), 100 mM (NH4)2SO4 or 1% casamino acids, control = 100
[11] = stationary phase cells in one-tenth volume MB, 37° C., single amino acids 0.1% (v/v), control = 100
[12] = listed as alkaline exoprotease produced by H. jannaschiana

Molecule: N.N.O=S(=O)(O)O [(NH4)2 SO4, ammonium sulfate]
- reduction in the synthesis of the exoprotease ([1]; 100 mM (NH4)2SO4): approximately 50%
- Enzyme activity (%) in growth media [1, 10]: 56%
- Enzyme activity (%) in cell free supernatant [2]: 100%
- extracellular enzyme activity in cell-free growth media (in words) ([2]; exposed to the added substance): no affect

Molecule: [Ca+2].[Cl-].[Cl-] [Ca^2+, CaCl2]
- restoration of activity to EGTA-inhibited exoprotease ([3]; 80 mM EGTA, CaCl2 at 1:1 ion to inhibitor, 25° C., 15 minutes): reversible; also recorded: restored
- restoration of activity to EDTA-inactivated enzyme ([3]; 15 minutes): partially restored
- effect of additional ions on activity of the native protease [3]: no detectable effect

Molecule: CC(C)CC(NC(=O)C1OC1C(=O)O)C(=O)NCCCCNC(=N)N (centres unmarked) [E64]
- exoprotease activity in additional assays, data not shown (in words) [4]: not affected

Molecule: O=C(O)CN(CCN(CC(=O)O)CC(=O)O)CC(=O)O [EDTA, ethylenediaminetetra-acetic acid]
- EDTA concentration necessary to inhibit enzyme activity [4]: greater than 10^-2 M
- protease activity after exposure to inhibitor (in words) ([4]; 25° C., 15 minutes): inhibited

Molecule: O=C(O)CN(CCOCCOCCN(CC(=O)O)CC(=O)O)CC(=O)O [EGTA, ethylene glycol bis(beta-amino-ethylether)N,N,N',N'-tetraacetic acid]
- protease activity after exposure to inhibitor (in words) ([4]; 25° C., 15 minutes): totally inhibited

Molecule: O=S(=O)(F)Cc1ccccc1 [PMSF, phenylmethyl sulfonamide fluoride]
- protease activity after exposure to inhibitor (in words) ([4]; 25° C., 15 minutes): unaffected; also recorded: not affected

Molecule: [Cl-].[Cl-].[Zn+2] [Zn^2+, ZnCl2]
- restoration of activity to o-phenanthroline-inhibited exoprotease ([3]; 5 mM o-phenanthroline, 5 mM ZnCl2, 1:1 ion to inhibitor, 25° C., 15 minutes): reactivated; also recorded: restored
- restoration of activity to EDTA-inactivated enzyme ([3]; 15 minutes): partially restored
- effect of additional ions on activity of the native protease [3]: significantly increased

Molecule: C[C@H](N)C(=O)O [alanine]
- Enzyme activity (%) in cell free supernatant [2]: 56%

Molecule: N[C@@H](CC(=O)O)C(=O)O [aspartic acid]
- activity [1, 11]: 79%
- Enzyme activity (%) in cell free supernatant [2]: 60%

Molecule: N[C@@H](CCC(=O)O)C(=O)O [glutamic acid]
- activity at 100000 µM [1]: 86%
- Enzyme activity (%) in cell free supernatant [2]: 52%

Molecule: NC(=O)CC[C@H](N)C(=O)O [glutamine]
- Enzyme activity (%) in cell free supernatant [2]: 52%

Molecule: NCC(=O)O [glycine]
- activity at 100000 µM [1, 10]: 69%
- Enzyme activity (%) in cell free supernatant [2]: 82%

Molecule: N[C@@H](Cc1c[nH]cn1)C(=O)O [histidine]
- activity [1, 11]: 87%
- Enzyme activity (%) in cell free supernatant [2]: 83%

Molecule: CC(C)C[C@H](N)C(=O)O [leucine]
- Enzyme activity (%) in cell free supernatant [2]: 69%

Molecule: OCCS [mercaptoethanol]
- exoprotease activity in additional assays, data not shown (in words) [4]: abolished

Molecule: c1cnc2c(c1)ccc1cccnc12 [o-phenanthroline]
- protease activity after exposure to inhibitor (in words) ([4]; 25° C., 15 minutes): totally inhibited

Molecule: O=C(O)c1cc[c]([Hg][Cl])cc1 [pCMB, p-chloromercuribenzoic acid]
- protease activity after exposure to low concentration of pCMB (in words) ([4]; 10 mM pCMB, 25° C., 15 minutes): unaffected; also recorded: not affected
- protease activity after exposure to high concentration of pCMB (in words) ([4]; 25 mM pCMB, 25° C., 15 minutes): reduced

Molecule: O=C(O)[C@@H]1CCCN1 [proline]
- activity at 100000 µM [1, 10]: 108%
- Enzyme activity (%) in cell free supernatant [2]: 93%

Molecule: CCN(CC)CCCC(C)Nc1c2ccc(Cl)cc2nc2ccc(OC)cc12 (centres unmarked) [quinacrine]
- activity at 25 µM ([5]; 0.5 h, time 30 min): 100%
- activity at 25 µM ([5]; 40 min, time 40 min): 33%
- inhibition at 25 µM ([5]; 40 min, 40 minutes after the addition of quinacrine, read-out: reduction in exported enzyme): 67%
- activity at 25 µM ([5]; 1 h, time 60 min): 50%
- activity at 25 µM ([5]; 1.5 h, time 90 min): 78%
- activity at 25 µM ([5]; 2 h, time 120 min): 82%
- activity at 25 µM ([5]; 3 h, time 180 min): 90%
- effect on functional extracellular protease activity (in words) [6]: no affect
- cell density and exoprotease activity after an additional 6 hour growth period (in words) [7]: returned to normal levels
- inhibition of growth at 25 µM ([7]; Hyphomonas jannaschiana, 7 h, seven hours after treatment, OD 550 nm, read-out: reduction of optical density of the culture vs untreated cells): 48%
- inhibition at 25 µM ([7]; Hyphomonas jannaschiana, 7 h, seven hours after treatment, read-out: exoprotease activity diminished vs untreated cells): 73%

Molecule: N[C@@H](CO)C(=O)O [serine]
- activity [1, 11]: 79%
- Enzyme activity (%) in cell free supernatant [2]: 64%

Molecule: N[C@@H](Cc1c[nH]c2ccccc12)C(=O)O [tryptophan]
- Enzyme activity (%) in cell free supernatant [2]: 56%

B1: H. jannaschiana exoprotease: extracellular thermostable alkaline metalloprotease, approximately 80,000 daltons, produced by Hyphomonas jannaschiana VP3 (protein)
chain: EICRIVMDGHCEKQGDAECHDDQQSARPADQRINQDVEQVDDQFEEQGPGRNVCGINVFGS
- activity remaining after boiling at 100° C. for 5 minutes [8]: at least 41%
- decrease of exoprotease activity after incubation at 75° C. for 30 minutes ([8]; azocasein assay): about 40%
- reduction of extracellular protease activity after 100° C. (boiling) for 5 minutes ([8]; filtered culture supernatant): 41%
- enzyme activity remaining after incubation at 75° C. for 30 minutes [8]: at least 60%
- enzyme activity remaining after incubation at 75° C. for 30 minutes [8, 12]: Over 60%
- proteolytic activity after boiling for 5 minutes (in words) [8, 12]: failed to destroy
- proteolytic activity after boiling for 5 minutes (in words) ([8]; listed as thermostable alkaline exoprotease): did not destroy
- isoelectric point pI [9]: 4.8
- optimal temperature ([9]; reacted at pH 9): 45 °C
- optimal pH ([9]; reaction temperature of about 60° to 65° C.): approximately 9.5
